# Test results as given in publication PMC6178282, “Comparative cell biological study of in vitro antitumor and antimetastatic activity on melanoma cells of GnRH-III-containing conjugates modified with short-chain fatty acids” (Beilstein Journal of Organic Chemistry, 2018).
# Key:
# A2058 melanoma cells = experiment: Apoptosis assay, annexin V-FITC flow cytometry; assay type: cell-based, human; details: 10^−5 M, 24 h, average of two parallels ± S.D., control 10.6 ± 0.51
# Protocol: The pro-apoptotic effects of conjugates and Dau at 10^−5 M concentration was studied after 24 h incubation by flow cytometry using FITC-annexin V (Sony Biotechnology, Weybridge, UK) and a novel image cytometer (NucleoCounter® NC-250^TM, ChemoMetec A/S, Lillerød, Denmark) using Vitabright-48™ (ChemoMetec A/S, Lillerød, Denmark), a cell permeable dye that reacts with thiol groups to form a fluorescent product. […]
# normalizing the viability of conjugate-treated cells with that of the control cells, and these indices of groups pretreated with inhibitors or DMSO were statistically compared.
# The apoptotic effect of conjugates and Dau was determined by a FACSCalibur flow cytometer (Becton Dickinson, San Jose, CA, USA) after staining with annexin V-FITC (Sony Biotechnology, Weybridge, UK) and NucleoCounter® NC-250™ cell analyzer (ChemoMetec A/S, Lillerød, Denmark) using Vitabright-48™, a cell-permeable fluorescent dye (ChemoMetec A/S, Lillerød, Denmark). […]
# The cells were dissociated by a TrypLE reagent (Thermo Fisher Scientific, Waltham, MA, USA) composed of recombinant enzyme protecting the cell’s surface proteins and it was followed by a centrifugation and a washing step with PBS. […] Before labeling with annexin V-FITC, the cells were measured by a flow cytometer for controlling the autofluorescence of cells in case of each treatment group. […]
# A2058 cells = experiment: Cell adhesion measurement, xCELLigence impedimetry; assay type: cell-based, human; details: Delta CI at 3 h normalized to control, three parallels
# Excerpt: The first crucial steps in metastasis cascade are the impaired adhesion contacts and in parallel the increased motility of tumor cells. These two events substantially provide for tumor cells to detach from the primary tumor and migrate to the surrounding tissue. Besides the tumor-selective antiproliferative/cytotoxic activity of the conjugates, they could be also desired to have an ability to interfere with the dissemination of cancer cells by modulating their adhesion and migration. In order to evaluate the conjugates as antimetastatic therapeutics, their effects on melanoma cell adhesion were investigated by the impedance-based xCELLigence System. The cell adhesion modulator effects of compounds were characterized by Delta Cell index values. […]
# The effect of Dau-GnRH-III conjugates on cell adhesion of model cell was assessed using the xCELLigence SP System ( ACEA Biosciences, San Diego, CA, USA).
# The adhesion assay, analogous to the description in [5], was started with a background measurement as mentioned above in the section “Cell proliferation and cytotoxicity measurement”. […] The adhesion of A2058 cells was monitored every 20 sec for at least 12 h at 10 kHz.
# The attachment and spreading of model cell were characterized by a time-course study of the Delta CI values. The Delta CI values were calculated by the integrated software (RTCA 2.0). […]
smiles,measurement,setting,value
COc1cccc2c1C(=O)c1c(O)c3c(c(O)c1C2=O)C[C@@](O)(C(C)=O)C[C@@H]3O[C@H]1C[C@H](N)[C@H](O)[C@H](C)O1 [daunorubicin],"the ratio of apoptotic cells, annexin V",A2058 melanoma cells,33.6 ± 5.51 %
same,effect on cell adhesion (Delta Cell index),A2058 cells; 10^−5 M,decrease
same,concentrations at which adhesion of A2058 cells was increased (Delta Cell index),A2058 cells; tested 10^−8–10^−5 M,10^−8 to 10^−7 M
